Experimental data as given in patent publication US20240065988A1, “COMBINED USE OF KETAMINE AND RETIGABINE (EZOGABINE) FOR THE TREATMENT OF PSYCHIATRIC DISORDERS” (Yeda Research and Development Co. Ltd., priority 2021, published 2024).

What was measured:
[1] = system: Kcnq2 mRNA in primary hippocampal neurons; experiment: Kcnq2 mRNA in primary hippocampal neurons stimulated with HNKet alone or plus nifedipine, W-7 or cyclosporine-A; format: cell-based, mouse
Description: (§1) Primary hippocampal neurons were generated from E16.5 embryos using a standard primary neuron cell culture protocol previously described [K. G. Schraut et al., Eur JNeurosci (2021) 53: 390-401]. Briefly, dissected hippocampi were harvested in ice-cold dissection medium (HBSS, 7 mM HEPES, 2 mM L-glutamine, 500 U/ml penicillin-streptomycin, all Thermo Fisher Scientific). The tissue was incubated for 10 minutes in 0.25% Trypsin-EDTA with 8 mM HEPES (Thermo Fisher Scientific) in a water bath at 37° C. Tissue was washed three times with serum medium (DMEM, 10% FBS, Thermo Fisher Scientific). The cells were dissociated by titration using glass Pasteur pipets 10 in serum medium and filtered with a 70 tm cell strainer (Corning). Cell culture plates were coated overnight with 0.05 mg/ml poly-D-lysine mol wt 70,000-150,000 (Sigma Aldrich) in 0.15 M borate buffer (pH=8.5). Cells were seeded in 24-well plates at a density of 5×10^4 cells in 1 ml growth medium (Neurobasal A medium, 1 x B27 supplement, 0.25×GlutaMAX, all Thermo Fisher Scientific) per well. All cultures were kept in a humidified incubator at 37° C. and 5% CO2. Growth medium was renewed after 7 days of culture. For all experiments, mature twenty-one-day old primary neuronal cultures were used.
Primary hippocampal neurons were generated from E16.5 embryos and cultured for 21 days, as described above (see Primary Cell Culture). For experiment 1 (FIGS. 3A-K), neurons were treated with a saline solution, (R,S)-ketamine (10 μM) (Ketaset, Zoetis, Germany) or (2R,6R)-HNKet (10 μM) (Sigma, Cat #SML1873-25MG) for 0, 2, 12, 24 or 48 hours and compared to untreated controls. For experiment 2 (FIGS. 6A-D), neurons were stimulated with either a saline solution, (2R,6R)-HNKet (10 μM), or a combination of (2R,6R)-HNKet (10 μM) plus nifedipine (10 μM) (Tocris Bioscience, Cat #1075), W-7 hydrochloride (10 μM) (Tocris, Cat #0369), or cyclosporine-A (1 μM) (Tocris, Cat #1101) for 30 minutes, 1, 2, or 6 hours, and compared to untreated controls. […]

[2] = system: primary hippocampal neurons; experiment: qPCR mRNA expression in primary hippocampal neurons treated with ketamine or HNKet; format: cell-based, mouse; conditions: 10 μM
Description: as §1
Primary hippocampal neurons were generated from E16.5 embryos and cultured for 21 days, as described above (see Primary Cell Culture). For experiment 1 (FIGS. 3A-K), neurons were treated with a saline solution, (R,S)-ketamine (10 μM) (Ketaset, Zoetis, Germany) or (2R,6R)-HNKet (10 μM) (Sigma, Cat #SML1873-25MG) for 0, 2, 12, 24 or 48 hours and compared to untreated controls. For experiment 2 (FIGS. 6A-D), neurons were stimulated with either a saline solution, (2R,6R)-HNKet (10 μM), or a combination of (2R,6R)-HNKet (10 μM) plus nifedipine (10 μM) (Tocris Bioscience, Cat #1075), W-7 hydrochloride (10 μM) (Tocris, Cat #0369), or cyclosporine-A (1 μM) (Tocris, Cat #1101) for 30 minutes, 1, 2, or 6 hours, and compared to untreated controls.
Ketamine treatment regulates Kcnq2 in primary hippocampal neurons To corroborate the previous findings in glutamatergic neurons, it was next examined whether treatment of primary hippocampal neurons with either (R,S)-ketamine or its active metabolite, (2R,6R)-hydroxynorketamine (HNKet), could modify the mRNA expression of the 8 genes tested earlier in glutamatergic neurons. Mouse primary hippocampal neurons are mostly made up of glutamatergic neurons and therefore make a very good model system to further validate the previous in vivo findings. […]

[3] = system: KCNQ channel (KCNQ2/3, M-current); experiment: In vitro whole-cell voltage-clamp recording of M-current (IM) density in primary hippocampal neurons; format: cell-based, mouse; conditions: HNKet 10 μM, 24 hours vs saline
mice (C57BL/6N) = experiment: Forced swim test (FST), pharmacological manipulation of KCNQ; format: in vivo, mouse; conditions: XE991 1 and 3 mg/kg BW in combination with saline (FIG. 23A)
Description: C57BL/6N and CD-1 (ICR) male mice aged 10 weeks old were used in these experiments. Ketamine hydrochloride (Ketaset, Zoetis, Germany) was diluted in 0.9% NaCl solution (saline) and administered i.p at 1, 5 or 10 mg/kg BW, depending on the experiment design. The KNCQ inhibitor, XE991 (Alomone labs; Cat #: X-100) was diluted in 5% DMSO and administered i.p at 1 or 3 mg/kg BW. The KCNQ activator, Retigabine (Alomone labs; Cat #: R-100), was diluted in 5% DMSO and administered i.p at 1 or 5 mg/kg BW. As control, mice were injected with a DMSO-saline solution (5% DMSO). For all experiments, mice were tested 30 minutes after injection in the FST or over a period of 36 hours after injection in the social boxes.
Previous studies in rodents have shown that KCNQ function can be regulated with highly-specific agonists and antagonists [V. Barrese et al., Annu Rev Pharmacol Toxicol (2018) 58: 625-648]. To further explore the KCNQ channel as a potential therapeutic target of ketamine, it was examined whether pharmacological inhibition of KCNQ alone or in combination with ketamine had any effects on behavior. To accomplish this, a new cohort of mice received two injections with a combination of drugs. […] To assess the effects of ketamine, XE991 (KCNQ inhibitor), and its combination, these mice were exposed to a FST (FIG. 7A, left). […] The inventors then sought to test whether the effects of ketamine could be mimicked, increased or amplified using retigabine, also known as ezogabine, a selective KCNQ (Kcnq2/3) channel activator. Similarly to the previous experiment, mice were treated with saline, (R,S)-ketamine (10 mg/kg BW), or ketamine in combination with two different concentrations of retigabine (1 and 5 mg/kg BW) (FIG. 7A, right).
Next, it was examined whether retigabine could increase the sustained antidepressant-like effects produced by a single injection of ketamine in mice. Accordingly, a new cohort of mice were treated with a single dose of saline, ketamine, or ketamine in combination with retigabine (1 mg/kg) and antidepressant-like behaviors were assessed using the FST, 5—and 7-days post-injection (FIG. 8A). […] Next, as a potential therapeutic strategy for major depressive disorder (MDD), the synergistic effects of ketamine and retigabine was further investigated by testing whether or not retigabine can increase the antidepressant-like effects produced by ketamine in mice. […] Next, it was tested whether retigabine can produce similar synergistic effects in combination with traditional antidepressants. […] Lastly, using a new cohort of Nex-Cre-Ai9 mice, it was tested whether the adjunctive treatment of ketamine with retigabine, or escitalopram alone, could modify the expression of Kcnq2 mRNA in FACS sorted cells from the vHipp (FIG. 8F).

[4] = system: Kcnq2 mRNA in glutamatergic neurons of the vHipp; experiment: qPCR mRNA levels in FACS-sorted glutamatergic neurons (Ai9+/tdTomato+) and remaining cells (Ai9-/tdTomato-) of Nex-Cre-Ai9 mice; format: in vivo, mouse; conditions: glutamatergic neurons (tdTomato+) of the vHipp, two days after treatment; ketamine 10, escitalopram 10, retigabine 1 mg/kg/BW
From the text: Conditional transgenic mice expressing tdTomato in glutamatergic neurons of the forebrain (Nex-Cre;Ai9) were generated by crossing homozygous Nex-Cre mice [described in S. Goebbels et al., Genesis (2006) 44: 611-621] with homozygous Ai9 mice [Gt(ROSA)26Sortm9(CAG-tdTomato)Hze] [described in L. Madisen et al., Nat Neurosci (2010) 13: 133-140].
In order to further investigate these findings, a conditional reporter mouse line (Nex-Cre-Ai9) was generated where most glutamatergic neurons of the forebrain, including the hippocampus, are fluorescently labeled by tdTomato (Ai9) except for neurons in the dentate gyrus where Neurod6, the promoter used to target glutamatergic neurons driving Cre expression, is not expressed (FIG. 12) [J. Hartmann et al., Mol Psychiatry (2017) 22: 466-475]. Following the same paradigm used in the original cohort, mice were group-housed and injected with (R,S)-ketamine (10 mg/kg BW) or a saline vehicle control. The vHipp of these mice was dissected […] later (i.e. 2 days). Single-cell suspensions were prepared and individual cells were sorted using fluorescence activated cell sorting (FACS) (FIG. 2A) into two separate pools of cells from each mouse. One pool contained glutamatergic neurons (Ai9+) and a second contained all remaining cell types of the vHipp (Ai9-) (FIG. 2A and FIGS. 13A-C). […] These two separate pools of cells were then used to validate the scRNA-seq findings in glutamatergic neurons at the population level using quantitative real-time polymerase chain reaction (qPCR).
Next, it was tested whether retigabine can produce similar synergistic effects in combination with traditional antidepressants.

SMILES: N[C@@]1(c2ccccc2Cl)CCC[C@@H](O)C1=O [HNKet, (2R,6R)-hydroxynorketamine]
- Kcnq2 mRNA ([1]; 1, 2 and 6 hours of stimulation, HNKet 10 μM): significant upregulation of Kcnq2 mRNA
- expression of Kcnq2 ([1]; 30 minutes of treatment, HNKet 10 μM): No significant differences
- mRNA expression of Hspa8, Snap25, Hsp90ab1, Ndufa4, Ilf2, E2f1 and Kcnq2 ([2]; 2, 12, 24 or 48 hours): significant changes
- Kcnq2 mRNA expression ([2]; 2, 12, 24 or 48 hours vs untreated and saline controls): significant upregulation at all time points tested
- IM current density [3]: significant increase in IM current density

SMILES: Cl.NCCCCCCNS(=O)(=O)c1cccc2c(Cl)cccc12 [W-7, W-7 hydrochloride]
- effect of inhibitor on the HNKet-induced upregulation of Kcnq2 mRNA ([1]; combined with HNKet 10 μM, nifedipine 10 μM, W-7 10 μM, cyclosporine-A 1 μM, 1, 2, 6 hours): eliminated the upregulation of Kcnq2

SMILES: O=C1c2ccccc2C(Cc2ccncc2)(Cc2ccncc2)c2ccccc21 [XE991, 10,10-bis(4-pirinydilmethyl)-9(10H)−antracenone]
- immobility time during the FST (mice (C57BL/6N)): No significant differences

SMILES: CN(C)CCC[C@@]1(c2ccc(F)cc2)OCc2cc(C#N)ccc21 [escitalopram]
- Kcnq2 mRNA [4]: No significant changes
